Activity calls are given as the source filed them. How the calls were made is not given here.
Test system: CCRIS mutagenicity, Ames/micronucleus/aberration tests
Experiment: CCRIS mutagenicity studies
[1] = Test System: AMES SALMONELLA TYPHIMURIUM, Strain/Indicator: TA100, Metabolic Activation: NONE, Method: PREINCUBATION
[2] = Test System: AMES SALMONELLA TYPHIMURIUM, Strain/Indicator: TA1535, Metabolic Activation: NONE, Method: PREINCUBATION
[3] = Test System: AMES SALMONELLA TYPHIMURIUM, Strain/Indicator: TA1537, Metabolic Activation: NONE, Method: PREINCUBATION
[4] = Test System: AMES SALMONELLA TYPHIMURIUM, Strain/Indicator: TA98, Metabolic Activation: NONE, Method: STANDARD PLATE
[5] = Test System: AMES SALMONELLA TYPHIMURIUM, Strain/Indicator: TA100, Metabolic Activation: NONE, Method: STANDARD PLATE
[6] = Test System: AMES SALMONELLA TYPHIMURIUM, Strain/Indicator: TA102, Metabolic Activation: NONE, Method: STANDARD PLATE

For `Cc1c2c(c(C)c3c1ccc1ccccc13)[C@@H]1OC1[C@@H](O)[C@@H]2O` (stereo not given in full), the mutagenic call (Test System: CHINESE HAMSTER V-79, Strain/Indicator: V-79/OUABAIN, Metabolic Activation: CELL-MEDIATED, Method: STANDARD PLATE) was “active; positive”.
For `COc1ccc([N+](=O)[O-])cc1N=Nc1c(O)c(C(=O)Nc2cccc([N+](=O)[O-])c2)cc2ccccc12`, the mutagenic call (Test System: AMES SALMONELLA TYPHIMURIUM, Strain/Indicator: TA98, Metabolic Activation: HAMSTER, LIVER, S-9, AROCLOR 1254 (10%), Method: PREINCUBATION) was “active; positive”, the mutagenic call (Test System: AMES SALMONELLA TYPHIMURIUM, Strain/Indicator: TA98, Metabolic Activation: NONE, Method: PREINCUBATION) was “active; positive” and the mutagenic call (Test System: AMES SALMONELLA TYPHIMURIUM, Strain/Indicator: TA98, Metabolic Activation: RAT, LIVER, S-9, AROCLOR 1254 (10%), Method: PREINCUBATION) was “active; positive”. For the same compound, the mutagenic call (Test System: AMES SALMONELLA TYPHIMURIUM, Strain/Indicator: TA100, Metabolic Activation: HAMSTER, LIVER, S-9, AROCLOR 1254 (10%), Method: PREINCUBATION) was “active; positive”, the mutagenic call [1] was “active; positive” and the mutagenic call (Test System: AMES SALMONELLA TYPHIMURIUM, Strain/Indicator: TA100, Metabolic Activation: RAT, LIVER, S-9, AROCLOR 1254 (10%), Method: PREINCUBATION) was “active; positive”. The mutagenic call (Test System: AMES SALMONELLA TYPHIMURIUM, Strain/Indicator: TA1535, Metabolic Activation: HAMSTER, LIVER, S-9, AROCLOR 1254 (10%), Method: PREINCUBATION) was “inactive; negative”, the mutagenic call [2] was “inactive; negative” and the mutagenic call (Test System: AMES SALMONELLA TYPHIMURIUM, Strain/Indicator: TA1535, Metabolic Activation: RAT, LIVER, S-9, AROCLOR 1254 (10%), Method: PREINCUBATION) was “inactive; negative”. For the same compound, the mutagenic call (Test System: AMES SALMONELLA TYPHIMURIUM, Strain/Indicator: TA1537, Metabolic Activation: HAMSTER, LIVER, S-9, AROCLOR 1254 (10%), Method: PREINCUBATION) was “active; positive”, the mutagenic call [3] was “active; positive” and the mutagenic call (Test System: AMES SALMONELLA TYPHIMURIUM, Strain/Indicator: TA1537, Metabolic Activation: RAT, LIVER, S-9, AROCLOR 1254 (10%), Method: PREINCUBATION) was “active; positive”.
`c1ccc(C2CO2)cc1` (stereo not given) was tested, and the mutagenic call (End Point: IN VITRO CHROMOSOMAL ABERRATIONS, Test System: CHL CELLS, Metabolic Activation: RAT, LIVER, S-9, SODIUM PHENOBARBITAL AND 5,6-BENZOFLAVONE) was “active; positive (structural changes)”, the mutagenic call (Test System: AMES SALMONELLA TYPHIMURIUM, Strain/Indicator: TA97, Metabolic Activation: NONE, Method: STANDARD PLATE) was “active; positive” and the mutagenic call (Test System: AMES SALMONELLA TYPHIMURIUM, Strain/Indicator: TA97, Metabolic Activation: RAT, LIVER, S-9, AROCLOR 1254, Method: STANDARD PLATE) was “inactive; negative”. For the same compound, the mutagenic call (Test System: AMES SALMONELLA TYPHIMURIUM, Strain/Indicator: TA98, Metabolic Activation: HAMSTER, LIVER, S-9, AROCLOR 1254 (30%), Method: PREINCUBATION) was “inactive; negative”, the mutagenic call [4] was “inactive; negative” and the mutagenic call (Test System: AMES SALMONELLA TYPHIMURIUM, Strain/Indicator: TA98, Metabolic Activation: RAT LIVER S-9, PHENOBARBITAL AND BETA-NAPHTHOFLAVONE, Method: PREINCUBATION) was “inactive; negative”. The mutagenic call (Test System: AMES SALMONELLA TYPHIMURIUM, Strain/Indicator: TA98, Metabolic Activation: RAT, LIVER, S-9, AROCLOR 1254 (30%), Method: PREINCUBATION) was “inactive; negative”, the mutagenic call (Test System: AMES SALMONELLA TYPHIMURIUM, Strain/Indicator: TA98, Metabolic Activation: RAT, LIVER, S-9, AROCLOR 1254, Method: STANDARD PLATE) was “inactive; negative” and the mutagenic call (Test System: AMES SALMONELLA TYPHIMURIUM, Strain/Indicator: TA100, Metabolic Activation: HAMSTER, LIVER, S-9, AROCLOR 1254 (30%), Method: PREINCUBATION) was “active; positive”. The mutagenic call [1] was “active; positive”, the mutagenic call [5] was “active; positive” and the mutagenic call (Test System: AMES SALMONELLA TYPHIMURIUM, Strain/Indicator: TA100, Metabolic Activation: RAT LIVER S-9, PHENOBARBITAL AND BETA-NAPHTHOFLAVONE, Method: PREINCUBATION) was “active; positive”. The mutagenic call (Test System: AMES SALMONELLA TYPHIMURIUM, Strain/Indicator: TA100, Metabolic Activation: RAT, LIVER, S-9, AROCLOR 1254 (30%), Method: PREINCUBATION) was “active; positive”, the mutagenic call (Test System: AMES SALMONELLA TYPHIMURIUM, Strain/Indicator: TA100, Metabolic Activation: RAT, LIVER, S-9, AROCLOR 1254, Method: STANDARD PLATE) was “inactive; negative” and the mutagenic call (Test System: AMES SALMONELLA TYPHIMURIUM, Strain/Indicator: TA104, Metabolic Activation: NONE, Method: STANDARD PLATE) was “active; positive”. For the same compound, the mutagenic call [2] was “active; positive”, the mutagenic call (Test System: AMES SALMONELLA TYPHIMURIUM, Strain/Indicator: TA1535, Metabolic Activation: NONE, Method: STANDARD PLATE) was “active; positive” and the mutagenic call (Test System: AMES SALMONELLA TYPHIMURIUM, Strain/Indicator: TA1535, Metabolic Activation: RAT LIVER S-9, PHENOBARBITAL AND BETA-NAPHTHOFLAVONE, Method: PREINCUBATION) was “active; positive”. The mutagenic call [3] was “active; positive”, the mutagenic call (Test System: AMES SALMONELLA TYPHIMURIUM, Strain/Indicator: TA1537, Metabolic Activation: RAT LIVER S-9, PHENOBARBITAL AND BETA-NAPHTHOFLAVONE, Method: PREINCUBATION) was “inactive; negative” and the mutagenic call (Test System: AMES SALMONELLA TYPHIMURIUM, Strain/Indicator: TA4001, Metabolic Activation: NONE, Method: STANDARD PLATE) was “active; positive”. The mutagenic call (Test System: AMES SALMONELLA TYPHIMURIUM, Strain/Indicator: TA4006, Metabolic Activation: NONE, Method: STANDARD PLATE) was “active; positive”, the mutagenic call (Test System: CHINESE HAMSTER V-79, Strain/Indicator: V-79/6-THIOGUANINE, Metabolic Activation: NONE, Method: FLASK ASSAY) was “inactive; negative” and the mutagenic call (Test System: CHINESE HAMSTER V-79, Strain/Indicator: V-79/8-AZAGUANINE, Metabolic Activation: NONE, Method: STANDARD PLATE) was “active; positive”. For the same compound, the mutagenic call (Test System: E. COLI, Strain/Indicator: WP2 UVRA, Metabolic Activation: NONE, Method: STANDARD PLATE) was “active; positive”, the mutagenic call (Test System: E.COLI, Strain/Indicator: WP2UVRA, Metabolic Activation: NONE, Method: PREINCUBATION) was “active; positive” and the mutagenic call (Test System: E.COLI, Strain/Indicator: WP2UVRA, Metabolic Activation: RAT LIVER S-9, PHENOBARBITAL AND BETA-NAPHTHOFLAVONE, Method: PREINCUBATION) was “active; positive”. The mutagenic call (Test System: HUMAN T LYMPHOCYTES, PRIMARY CULTURES, Strain/Indicator: HPRT/6-THIOGUANINE, Metabolic Activation: NONE, Method: SUSPENSION/PLATE) was “active; positive” and the mutagenic call (Test System: UDS HUMAN CELLS, Strain/Indicator: THY INCORP (NON-S-PHASE), Metabolic Activation: NONE, Method: LIQUID SCINTILLATION COUNTING) was “active; positive”.
For `Oc1cccc2c1ccc1c3c4c(cccc4cc12)C=C3`, the mutagenic call [4] was “inactive; negative” and the mutagenic call (Test System: AMES SALMONELLA TYPHIMURIUM, Strain/Indicator: TA98, Metabolic Activation: RAT, LIVER, S-9, AROCLOR 1254 (0, 0.4, 0.8, 1.15 OR 1.5 MG/PLATE), Method: STANDARD PLATE) was “active; positive”.
In the case of `CC(C)OC(=O)c1cc(NC(=S)OC(C)C)ccc1Cl`, the mutagenic call (Test System: Mouse lymphoma, Strain/Indicator: L5178Y (tk+/tk-), Metabolic Activation: None, Method: Suspension/plate) is reported as “inactive; negative” and the mutagenic call (Test System: Mouse lymphoma, Strain/Indicator: L5178Y (tk+/tk-), Metabolic Activation: Rat, Liver, S-9, Aroclor 1254, Method: Suspension/plate) is reported as “inactive; negative”.
With `COC(=O)CCl` the mutagenic call [6] was “inactive; negative”, the mutagenic call (Test System: AMES SALMONELLA TYPHIMURIUM, Strain/Indicator: TA2638, Metabolic Activation: NONE, Method: STANDARD PLATE) was “inactive; negative” and the mutagenic call (Test System: E. COLI, Strain/Indicator: WP2 (PKM101), Metabolic Activation: NONE, Method: STANDARD PLATE) was “inactive; negative”. For the same compound, the mutagenic call (Test System: E. COLI, Strain/Indicator: WP2 UVRA (PKM101), Metabolic Activation: NONE, Method: STANDARD PLATE) was “inactive; negative”.
For `OC[C@H]1O[C@@H](n2cnc3c(NO)ncnc32)[C@H](O)[C@@H]1O`, the mutagenic call [4] was “active; positive”, the mutagenic call (Test System: AMES SALMONELLA TYPHIMURIUM, Strain/Indicator: TA100(TN5-1,8-DNP1011), Metabolic Activation: NONE, Method: STANDARD PLATE) was “active; positive” and the mutagenic call (Test System: AMES SALMONELLA TYPHIMURIUM, Strain/Indicator: TA100(TN5-1,8-DNP1012), Metabolic Activation: NONE, Method: STANDARD PLATE) was “active; positive”. The mutagenic call [5] was “active; positive” and the mutagenic call [6] was “inactive; negative”.
